Patent US12600724B2, “Indole alkaloid and preparation method and use thereof” (NANJING UNIVERSITY OF CHINESE MEDICINE, priority 2022, dated 2026)

Columns and labels:
[1] = tested on: DRG neurons of type-1 diabetes peripheral neuropathy model mice; experiment: Axon growth of DRG neuron cells taken after administration, type-1 mice; assay type: in vivo, C57BL/6J mice
Experimental: (§1) Type-1 diabetes mice: male 8-week-old C57BL/6J mice were purchased from Beijing Vital River Laboratory Animal Technology Co., Ltd. One week after adaptive feeding, STZ (150 mg/kg) was injected intraperitoneally, and one week later, tail vein blood collection was carried out for blood sugar detection, and the mice with random blood sugar greater than 16 mmol/L were selected. Six weeks after STZ injection, the mice were divided into a control group (non-diabetic mice), a model group (DPN mice) and a S26 administration group (46.8 mg/kg/day) respectively according to body weight and blood sugar, and administrated intragastrically for four weeks continuously. After administration, a fresh DRG neuron of a mouse was extracted to digest into a single-cell suspension and then inoculated into a culture plate for adherent culture overnight. A β-tubulin III (Sigma) protein of the DRG neuron cells was labeled by an immunofluorescence staining method. The protein was imaged by a fluorescence microscope (Leica), and a total axon length of a single DRG neuron cell was tracked by a Neuro J plug-in in Image J software.

[2] = tested on: primary DRG neuron; experiment: Axon growth of primary DRG neurons (immunofluorescence, Neuro J); assay type: cell-based, C57BL/6J mice; conditions: 24 hours
Experimental: Diabetic peripheral neuropathy involved a sensory neuron first, and a main pathological change was axonal atrophy and degeneration, or even disappearance. […] Therefore, the compounds in the examples were added with the primary DRG neuron to incubate for a certain period of time, then the axon growth of the DRG neuron was detected by immunofluorescence, and an axon length was quantified by Neuro J, so as to evaluate the promotion effect of the compound on the axon growth of the peripheral sensory neuron.
Primary antibodies of mice anti-β-tubulin III used for fluorescent staining were purchased from Sigma Company, cell culture reagents were all purchased from Gibco Company, and DRG neuronal cells were taken from C57BL/6J mice. Specific experimental steps were as follows: fresh DRG of the C57 mice was extracted to digest into a single-cell suspension and then inoculated into a culture plate for adherent culture overnight, with vinblastine as a positive drug, the to-be-detected compounds S1 to S87 ([…]) synthesized in the above examples were given to incubate for 24 hours, then an original culture medium was removed, 4% paraformaldehyde was added into each well to fix for 15 minutes after PBS washing, the mixture was permeabilized with 0.3% TritonX-100 for 5 minutes and sealed at room temperature with 4% BSA for 1 hour, a primary antibody (1:1000) was incubated at 4° C. overnight, a goat anti-mouse fluorescent secondary antibody (1:300) was incubated at room temperature in the dark for 1 hour, and a sealed slide was imaged by a fluorescence microscope (Leica). According to the image, a total axon length of a single DRG neuron was tracked by a Neuro J plug-in in Image J software, and a multiple of the total axon length relative to that of the blank control group was calculated.

[3] = tested on: DRG neurons of type-2 diabetes peripheral neuropathy model mice; experiment: Axon growth of DRG neuron cells taken after administration, type-2 mice; assay type: in vivo, BKS db/db mice
Experimental: as §1, with “Type-2” for “Type-1”, “18-week-old BKS db/db” for “8-week-old C57BL/6J”, “Jiangsu Gempharmatech Biotechnology” for “Beijing Vital River Laboratory Animal Technology”, “feeding,” for “feeding, STZ (150 mg/kg) was injected intraperitoneally, and one week later, tail vein blood collection was carried out for blood sugar detection, and the mice with random blood sugar greater than 16 mmol/L were selected. Six weeks after STZ injection,”, “(db/m” for “(non-diabetic”, “(db/db” for “(DPN”

For CC[C@@]12C=C(C(=O)NCC(=O)OCCOCCOCCOCCO)n3c4c(c5ccccc53)CCN(CCC1)[C@H]42 [Compound S26], the Total axon length ([1]; Type-1 mice, DRG neurons extracted after four weeks of S26 46.8 mg/kg/day intragastric, Mean (SD in the cell below), n = 6) was 6374.12 pixel, the “Axon growth conditions of DRG neurons (in words, FIG. 1)” value ([1]; type-1 diabetes peripheral neuropathy model mice) was “obviously improve” and the “Promotion of axon growth of the primary DRG neuron compared with the positive drug (in words)” value ([2]; 10 μm) was “more outstanding effect”. The fold induction at 10 µM ([2]; Mus musculus, multiple of total axon length of a single DRG neuron relative to blank control group) was 13.7, the Total axon length ([3]; Type-2 db/db mice, DRG neurons extracted after four weeks of S26 46.8 mg/kg/day intragastric, Mean (SD in the cell below), n = 6) was 6070.18 pixel and the “Axon growth conditions of DRG neurons (in words, FIG. 1)” value ([3]; type-2 diabetes peripheral neuropathy model mice) was “obviously improve”.
